Reference: the NIST ThermoML archive (doi:10.1016/j.jct.2011.01.014)

Experiment: xn = mol fraction of the nth substance listed
Settings: 101 kPa, Liquid; for mass density: Vibrating tube method; for speed of sound: sound velocity cell

CC(=O)[O-].[NH3+]CCO [2-hydroxyethylammonium acetate] + O
Settings	mass density [kg/m3]	speed of sound [m/s]
288.15 K, x1 = 0.051	1055.26	1676.3
288.15 K, x1 = 0.1019	1085.14	1768.9
288.15 K, x1 = 0.1963	1116.52	1839
288.15 K, x1 = 0.2894	1131.28	1851.1
288.15 K, x1 = 0.3959	1140.75	1843.1
288.15 K, x1 = 0.5016	1145.83	1833.6
288.15 K, x1 = 0.5821	1148.34	1831.6
288.15 K, x1 = 0.6837	1150.31	1824.3
288.15 K, x1 = 0.7763	1152.17	1824.4
288.15 K, x1 = 0.8761	1153.59	1817.1
288.15 K, x1 = 0.9137	1153.92	1819.5
288.15 K, x1 = 1	1154.7	1817.2
290.65 K, x1 = 0.051	1054.36	1679
290.65 K, x1 = 0.1019	1084.06	1768.6
290.65 K, x1 = 0.1963	1115.24	1836.1
290.65 K, x1 = 0.2894	1129.93	1847.3
290.65 K, x1 = 0.3959	1139.38	1838.7
290.65 K, x1 = 0.5016	1144.47	1828.7
290.65 K, x1 = 0.5821	1146.91	1826.5
290.65 K, x1 = 0.6837	1148.88	1818.9
290.65 K, x1 = 0.7763	1150.75	1818.5
290.65 K, x1 = 0.8761	1152.16	1810.7
290.65 K, x1 = 0.9137	1152.5	1812.8
290.65 K, x1 = 1	1153.28	1810
293.15 K, x1 = 0.051	1053.41	1681.4
293.15 K, x1 = 0.1019	1082.96	1768.1
293.15 K, x1 = 0.1963	1113.95	1833.1
293.15 K, x1 = 0.2894	1128.59	1843.4
293.15 K, x1 = 0.3959	1138.01	1834.2
293.15 K, x1 = 0.5016	1143.09	1823.9
293.15 K, x1 = 0.5821	1145.54	1821.6
293.15 K, x1 = 0.6837	1147.45	1813.6
293.15 K, x1 = 0.7763	1149.34	1812.9
293.15 K, x1 = 0.8761	1150.75	1804.6
293.15 K, x1 = 0.9137	1151.09	1806.5
293.15 K, x1 = 1	1151.87	1803.2
295.65 K, x1 = 0.051	1052.44	1683.6
295.65 K, x1 = 0.1019	1081.85	1767.5
295.65 K, x1 = 0.1963	1112.66	1830.1
295.65 K, x1 = 0.2894	1127.24	1839.5
295.65 K, x1 = 0.3959	1136.62	1829.7
295.65 K, x1 = 0.5016	1141.71	1819.1
295.65 K, x1 = 0.5821	1144.18	1816.5
295.65 K, x1 = 0.6837	1146.02	1808.4
295.65 K, x1 = 0.7763	1147.92	1807.5
295.65 K, x1 = 0.8761	1149.33	1798.7
295.65 K, x1 = 0.9137	1149.67	1800.5
295.65 K, x1 = 1	1150.45	1796.8
298.15 K, x1 = 0.051	1051.43	1685.5
298.15 K, x1 = 0.1019	1080.72	1766.7
298.15 K, x1 = 0.1963	1111.36	1827
298.15 K, x1 = 0.2894	1125.89	1835.5
298.15 K, x1 = 0.3959	1135.24	1825.2
298.15 K, x1 = 0.5016	1140.33	1814.2
298.15 K, x1 = 0.5821	1142.82	1811.6
298.15 K, x1 = 0.6837	1144.63	1803.3
298.15 K, x1 = 0.7763	1146.5	1802.1
298.15 K, x1 = 0.8761	1147.91	1793
298.15 K, x1 = 0.9137	1148.26	1794.7
298.15 K, x1 = 1	1149.04	1790.7
300.65 K, x1 = 0.051	1050.38	1687.2
300.65 K, x1 = 0.1019	1079.57	1765.8
300.65 K, x1 = 0.1963	1110.06	1823.9
300.65 K, x1 = 0.2894	1124.53	1831.6
300.65 K, x1 = 0.3959	1133.86	1820.6
300.65 K, x1 = 0.5016	1138.94	1809.4
300.65 K, x1 = 0.5821	1141.44	1806.7
300.65 K, x1 = 0.6837	1143.27	1798.2
300.65 K, x1 = 0.7763	1145.08	1796.9
300.65 K, x1 = 0.8761	1146.49	1787.4
300.65 K, x1 = 0.9137	1146.85	1789.1
300.65 K, x1 = 1	1147.63	1784.8
303.15 K, x1 = 0.051	1049.3	1688.6
303.15 K, x1 = 0.1019	1078.39	1764.8
303.15 K, x1 = 0.1963	1108.74	1820.6
303.15 K, x1 = 0.2894	1123.17	1827.5
303.15 K, x1 = 0.3959	1132.47	1816
303.15 K, x1 = 0.5016	1137.56	1804.6
303.15 K, x1 = 0.5821	1140.07	1801.9
303.15 K, x1 = 0.6837	1141.9	1793.2
303.15 K, x1 = 0.7763	1143.67	1791.7
303.15 K, x1 = 0.8761	1145.07	1782
303.15 K, x1 = 0.9137	1145.43	1783.6
303.15 K, x1 = 1	1146.22	1779
305.65 K, x1 = 0.051	1048.18	–
305.65 K, x1 = 0.1019	1077.21	–
305.65 K, x1 = 0.1963	1107.43	–
305.65 K, x1 = 0.2894	1121.8	–
305.65 K, x1 = 0.3959	1131.08	–
305.65 K, x1 = 0.5016	1136.16	–
305.65 K, x1 = 0.5821	1138.68	–
305.65 K, x1 = 0.6837	1140.52	–
305.65 K, x1 = 0.7763	1142.31	–
305.65 K, x1 = 0.8761	1143.65	–
305.65 K, x1 = 0.9137	1144.01	–
305.65 K, x1 = 1	1144.8	–
